According to paper PMC10176470, “Engaging a Non-catalytic Cysteine Residue Drives Potent and Selective Inhibition of Caspase-6” (Journal of the American Chemical Society, 2023):

What was measured:
Test in all cases: SILAC proteomics / in-gel fluorescence, competition of probe 13-t labeling by 3a
[1] = molecular target: proteins of HEK293T cells transiently overexpressing caspase-6 (Homo sapiens, UniProt O43143); settings: Comp; protein DHX15 O43143
[2] = molecular target: T1, proteins of HEK293T cells transiently overexpressing caspase-6 (Homo sapiens, UniProt P04075); settings: Comp; protein ALDOA P04075
T1 sequence (P04075 1-364): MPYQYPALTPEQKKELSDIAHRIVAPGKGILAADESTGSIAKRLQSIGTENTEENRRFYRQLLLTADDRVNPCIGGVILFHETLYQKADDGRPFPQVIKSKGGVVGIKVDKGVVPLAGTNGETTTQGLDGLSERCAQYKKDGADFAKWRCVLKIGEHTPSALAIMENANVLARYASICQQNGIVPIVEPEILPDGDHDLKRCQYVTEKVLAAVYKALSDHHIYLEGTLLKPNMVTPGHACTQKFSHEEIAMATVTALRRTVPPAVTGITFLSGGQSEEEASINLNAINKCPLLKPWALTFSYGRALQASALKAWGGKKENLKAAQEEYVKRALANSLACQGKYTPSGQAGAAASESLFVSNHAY

[3] = molecular target: proteins of HEK293T cells transiently overexpressing caspase-6 (Homo sapiens, UniProt P09211)
[4] = molecular target: proteins of HEK293T cells transiently overexpressing caspase-6 (Homo sapiens, UniProt P11021)
[5] = molecular target: T2, proteins of HEK293T cells transiently overexpressing caspase-6 (Homo sapiens, UniProt P12236)
T2 sequence (P12236 1-298): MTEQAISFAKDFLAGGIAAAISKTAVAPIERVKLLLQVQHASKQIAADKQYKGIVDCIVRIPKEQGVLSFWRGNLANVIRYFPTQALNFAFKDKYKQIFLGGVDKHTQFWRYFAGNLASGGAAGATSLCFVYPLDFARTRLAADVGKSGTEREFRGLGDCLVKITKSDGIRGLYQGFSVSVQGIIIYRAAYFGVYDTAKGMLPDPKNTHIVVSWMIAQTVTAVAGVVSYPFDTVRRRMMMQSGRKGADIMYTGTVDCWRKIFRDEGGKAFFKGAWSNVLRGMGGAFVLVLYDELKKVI

[6] = molecular target: proteins of HEK293T cells transiently overexpressing caspase-6 (Homo sapiens, UniProt P17987); settings: Comp; protein TCP1 P17987
[7] = molecular target: proteins of HEK293T cells transiently overexpressing caspase-6 (Homo sapiens, UniProt P27708)
[8] = molecular target: proteins of HEK293T cells transiently overexpressing caspase-6 (Homo sapiens, UniProt P39023); settings: Comp; protein RPL3 P39023
[9] = molecular target: T3, proteins of HEK293T cells transiently overexpressing caspase-6 (Homo sapiens, UniProt P40926); settings: Comp; protein MDH2 P40926
T3 sequence (P40926 25-338): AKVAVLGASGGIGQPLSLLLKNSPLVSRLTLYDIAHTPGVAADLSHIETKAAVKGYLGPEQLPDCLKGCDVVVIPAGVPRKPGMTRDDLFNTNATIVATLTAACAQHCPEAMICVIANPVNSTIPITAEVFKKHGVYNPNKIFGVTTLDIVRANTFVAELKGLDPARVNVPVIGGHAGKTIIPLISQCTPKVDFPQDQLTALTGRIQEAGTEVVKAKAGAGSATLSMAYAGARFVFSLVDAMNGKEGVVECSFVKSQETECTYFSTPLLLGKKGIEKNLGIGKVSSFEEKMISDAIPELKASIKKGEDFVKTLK

[10] = molecular target: proteins of HEK293T cells transiently overexpressing caspase-6 (Homo sapiens, UniProt P62888); settings: Comp; protein RPL30 P62888
[11] = molecular target: proteins of HEK293T cells transiently overexpressing caspase-6 (Homo sapiens, UniProt Q13347)
[12] = molecular target: proteins of HEK293T cells transiently overexpressing caspase-6 (Homo sapiens, UniProt Q9H307)
[13] = protein GSTP1 (P09211), Exp Comp, analysis C6, p 0.5000, 2 peptides
[14] = protein HSPA5 (P11021), Exp Comp, analysis C6, p 0.000244, 13 peptides
[15] = protein SLC25A6 (P12236), Exp Comp, analysis C6, p 0.5000, 2 peptides
[16] = protein CAD (P27708), Exp Comp, analysis C6, p 0.5000, 2 peptides
[17] = protein EIF3I (Q13347), Exp Comp, analysis C6, p 0.0625, 5 peptides
[18] = protein PNN (Q9H307), Exp Comp, analysis C6, p 0.5000, 2 peptides

Sequence of proteins of HEK293T cells transiently overexpressing caspase-6 (Homo sapiens, UniProt Q9H307) (Q9H307 whole entry): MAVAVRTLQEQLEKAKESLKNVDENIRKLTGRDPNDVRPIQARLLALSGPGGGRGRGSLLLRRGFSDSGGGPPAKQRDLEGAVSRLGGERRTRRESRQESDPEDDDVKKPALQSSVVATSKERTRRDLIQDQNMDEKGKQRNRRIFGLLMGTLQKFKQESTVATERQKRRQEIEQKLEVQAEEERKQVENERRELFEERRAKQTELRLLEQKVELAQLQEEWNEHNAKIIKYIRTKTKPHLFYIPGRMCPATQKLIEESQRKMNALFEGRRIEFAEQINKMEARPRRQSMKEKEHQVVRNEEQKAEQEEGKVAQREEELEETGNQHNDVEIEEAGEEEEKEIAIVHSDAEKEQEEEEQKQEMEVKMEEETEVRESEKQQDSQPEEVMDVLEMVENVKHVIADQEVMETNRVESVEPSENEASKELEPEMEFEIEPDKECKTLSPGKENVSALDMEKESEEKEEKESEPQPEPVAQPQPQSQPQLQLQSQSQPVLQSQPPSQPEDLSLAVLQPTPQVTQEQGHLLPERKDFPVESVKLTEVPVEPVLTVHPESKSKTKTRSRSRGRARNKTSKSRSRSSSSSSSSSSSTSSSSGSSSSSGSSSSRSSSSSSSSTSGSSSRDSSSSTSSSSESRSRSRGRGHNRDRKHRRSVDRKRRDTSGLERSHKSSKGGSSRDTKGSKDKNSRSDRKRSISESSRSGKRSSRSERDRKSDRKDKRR
Sequence of proteins of HEK293T cells transiently overexpressing caspase-6 (Homo sapiens, UniProt P11021) (P11021 19-654): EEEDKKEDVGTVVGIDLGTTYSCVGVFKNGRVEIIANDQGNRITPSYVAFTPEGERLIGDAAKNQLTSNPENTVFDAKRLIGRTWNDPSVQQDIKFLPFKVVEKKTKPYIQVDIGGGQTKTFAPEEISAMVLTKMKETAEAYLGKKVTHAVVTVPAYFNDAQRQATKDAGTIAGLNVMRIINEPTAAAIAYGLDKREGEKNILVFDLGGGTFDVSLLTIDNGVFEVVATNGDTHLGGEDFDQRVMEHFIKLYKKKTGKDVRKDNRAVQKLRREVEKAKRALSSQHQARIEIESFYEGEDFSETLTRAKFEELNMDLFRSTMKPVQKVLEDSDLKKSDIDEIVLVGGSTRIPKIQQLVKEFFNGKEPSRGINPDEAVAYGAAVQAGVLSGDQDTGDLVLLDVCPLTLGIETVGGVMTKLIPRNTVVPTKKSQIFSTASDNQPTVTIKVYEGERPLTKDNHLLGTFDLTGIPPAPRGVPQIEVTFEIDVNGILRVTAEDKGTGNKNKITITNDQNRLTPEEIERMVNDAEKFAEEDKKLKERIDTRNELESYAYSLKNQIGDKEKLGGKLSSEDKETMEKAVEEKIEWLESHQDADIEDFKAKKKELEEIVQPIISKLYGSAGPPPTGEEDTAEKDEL
Sequence of proteins of HEK293T cells transiently overexpressing caspase-6 (Homo sapiens, UniProt P09211) (P09211 whole entry): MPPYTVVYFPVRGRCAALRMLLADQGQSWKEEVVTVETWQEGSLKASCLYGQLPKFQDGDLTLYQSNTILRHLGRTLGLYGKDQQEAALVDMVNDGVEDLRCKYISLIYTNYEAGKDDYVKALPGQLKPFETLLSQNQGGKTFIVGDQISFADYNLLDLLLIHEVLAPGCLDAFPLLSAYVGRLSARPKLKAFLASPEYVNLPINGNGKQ
Sequence of proteins of HEK293T cells transiently overexpressing caspase-6 (Homo sapiens, UniProt P27708) (P27708 whole entry): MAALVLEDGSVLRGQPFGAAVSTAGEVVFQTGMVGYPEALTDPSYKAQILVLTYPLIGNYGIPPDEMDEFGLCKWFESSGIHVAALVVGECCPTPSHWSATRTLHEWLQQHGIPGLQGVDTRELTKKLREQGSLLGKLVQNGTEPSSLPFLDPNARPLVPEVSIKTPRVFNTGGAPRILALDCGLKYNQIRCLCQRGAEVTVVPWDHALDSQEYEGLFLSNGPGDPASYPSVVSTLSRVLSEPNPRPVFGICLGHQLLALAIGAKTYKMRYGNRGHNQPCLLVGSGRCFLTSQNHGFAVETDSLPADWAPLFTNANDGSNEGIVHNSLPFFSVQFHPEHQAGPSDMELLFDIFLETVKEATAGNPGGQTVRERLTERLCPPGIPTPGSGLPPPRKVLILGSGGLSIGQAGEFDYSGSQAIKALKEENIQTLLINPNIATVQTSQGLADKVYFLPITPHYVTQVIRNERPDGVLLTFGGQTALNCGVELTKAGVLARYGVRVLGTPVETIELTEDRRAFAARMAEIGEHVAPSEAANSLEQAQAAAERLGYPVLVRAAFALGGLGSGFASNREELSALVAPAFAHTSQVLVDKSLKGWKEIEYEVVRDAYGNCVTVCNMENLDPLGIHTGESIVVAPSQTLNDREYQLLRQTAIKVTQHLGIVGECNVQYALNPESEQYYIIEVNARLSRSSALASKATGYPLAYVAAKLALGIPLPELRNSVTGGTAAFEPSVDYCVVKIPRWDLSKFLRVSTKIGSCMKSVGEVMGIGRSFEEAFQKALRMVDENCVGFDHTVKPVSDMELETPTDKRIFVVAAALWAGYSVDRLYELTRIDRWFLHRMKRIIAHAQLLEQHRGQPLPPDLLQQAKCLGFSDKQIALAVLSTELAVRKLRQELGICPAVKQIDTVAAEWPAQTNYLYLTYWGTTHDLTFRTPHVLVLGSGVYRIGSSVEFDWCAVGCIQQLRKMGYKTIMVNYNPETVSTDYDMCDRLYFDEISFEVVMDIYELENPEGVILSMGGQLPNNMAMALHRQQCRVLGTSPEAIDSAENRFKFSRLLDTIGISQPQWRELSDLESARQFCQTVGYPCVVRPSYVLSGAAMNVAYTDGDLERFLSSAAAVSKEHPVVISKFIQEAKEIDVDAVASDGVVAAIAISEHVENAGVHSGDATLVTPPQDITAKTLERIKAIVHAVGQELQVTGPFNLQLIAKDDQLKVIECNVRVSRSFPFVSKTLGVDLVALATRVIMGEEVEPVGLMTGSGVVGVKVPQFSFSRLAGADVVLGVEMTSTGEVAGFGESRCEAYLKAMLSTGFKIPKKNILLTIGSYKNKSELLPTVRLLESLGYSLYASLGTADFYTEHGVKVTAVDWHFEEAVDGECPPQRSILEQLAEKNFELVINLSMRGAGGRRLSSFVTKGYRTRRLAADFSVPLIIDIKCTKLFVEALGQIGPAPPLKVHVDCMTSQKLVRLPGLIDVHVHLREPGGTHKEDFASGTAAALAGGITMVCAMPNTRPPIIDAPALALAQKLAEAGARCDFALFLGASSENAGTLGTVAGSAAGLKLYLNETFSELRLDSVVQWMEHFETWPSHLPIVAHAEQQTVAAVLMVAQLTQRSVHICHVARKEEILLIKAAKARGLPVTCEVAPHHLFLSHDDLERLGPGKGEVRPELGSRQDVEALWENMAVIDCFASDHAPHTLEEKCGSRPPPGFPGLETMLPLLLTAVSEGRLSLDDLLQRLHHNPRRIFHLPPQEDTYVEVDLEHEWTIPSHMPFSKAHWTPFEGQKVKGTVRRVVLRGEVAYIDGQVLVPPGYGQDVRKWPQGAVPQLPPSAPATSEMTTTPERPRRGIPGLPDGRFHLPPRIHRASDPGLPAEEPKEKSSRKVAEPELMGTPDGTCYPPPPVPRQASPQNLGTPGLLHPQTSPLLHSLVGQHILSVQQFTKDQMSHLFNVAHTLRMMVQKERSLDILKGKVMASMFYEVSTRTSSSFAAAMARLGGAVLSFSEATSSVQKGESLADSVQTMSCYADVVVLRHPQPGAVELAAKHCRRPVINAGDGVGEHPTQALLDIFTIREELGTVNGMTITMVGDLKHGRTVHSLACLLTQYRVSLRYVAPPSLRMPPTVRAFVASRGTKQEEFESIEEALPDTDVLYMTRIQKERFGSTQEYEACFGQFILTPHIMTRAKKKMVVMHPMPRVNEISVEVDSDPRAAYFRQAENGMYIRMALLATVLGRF
Sequence of proteins of HEK293T cells transiently overexpressing caspase-6 (Homo sapiens, UniProt Q13347) (Q13347 whole entry): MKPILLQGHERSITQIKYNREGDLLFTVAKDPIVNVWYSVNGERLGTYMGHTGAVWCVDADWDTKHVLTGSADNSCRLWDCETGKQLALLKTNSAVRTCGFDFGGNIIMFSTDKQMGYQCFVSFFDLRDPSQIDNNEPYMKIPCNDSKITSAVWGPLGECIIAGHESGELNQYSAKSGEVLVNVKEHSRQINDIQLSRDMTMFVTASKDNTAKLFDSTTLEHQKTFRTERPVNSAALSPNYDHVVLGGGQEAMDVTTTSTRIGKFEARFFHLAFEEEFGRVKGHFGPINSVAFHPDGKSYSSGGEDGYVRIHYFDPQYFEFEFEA
Sequence of proteins of HEK293T cells transiently overexpressing caspase-6 (Homo sapiens, UniProt P17987) (P17987 whole entry): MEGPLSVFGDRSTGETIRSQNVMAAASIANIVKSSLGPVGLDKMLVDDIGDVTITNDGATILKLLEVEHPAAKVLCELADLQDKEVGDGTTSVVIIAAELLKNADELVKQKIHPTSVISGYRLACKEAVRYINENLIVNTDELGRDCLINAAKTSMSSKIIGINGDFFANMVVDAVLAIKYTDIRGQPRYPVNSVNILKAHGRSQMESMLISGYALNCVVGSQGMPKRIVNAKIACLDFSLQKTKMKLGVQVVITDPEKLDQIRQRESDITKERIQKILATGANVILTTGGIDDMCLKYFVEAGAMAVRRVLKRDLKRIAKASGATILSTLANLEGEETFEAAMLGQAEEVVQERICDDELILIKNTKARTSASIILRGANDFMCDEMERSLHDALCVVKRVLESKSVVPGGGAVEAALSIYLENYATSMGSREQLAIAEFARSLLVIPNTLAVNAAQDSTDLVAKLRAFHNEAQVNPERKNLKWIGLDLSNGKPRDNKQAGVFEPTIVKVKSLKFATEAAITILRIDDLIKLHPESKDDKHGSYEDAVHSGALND

## C=CS(=O)(=O)N1C[C@H](C(=O)Nc2ccc(OC(F)(F)F)cc2)C[C@@H](c2ccccc2)C1 [3a]
[1]
  enrich.exp.med: 0.7591
[2]
  enrich.exp.med: 0.6768
[3]; Comp, protein GSTP1 P09211
  enrich.exp.med: 0.9589
[3]; [13]
  enrich.exp.med.lin: 1.9438
  enrich.exp.med.log2: 0.9589
[4]; Comp, protein HSPA5 P11021
  enrich.exp.med: 1.086
[4]; [14]
  enrich.exp.med.lin: 2.123
  enrich.exp.med.log2: 1.086
[5]; Comp, protein SLC25A6 P12236
  enrich.exp.med: 3.139
[5]; [15]
  enrich.exp.med.lin: 8.81
  enrich.exp.med.log2: 3.139
[6]
  enrich.exp.med: 0.7901
[7]; Comp, protein CAD P27708
  enrich.exp.med: 1.9642
[7]; [16]
  enrich.exp.med.lin: 3.902
  enrich.exp.med.log2: 1.9642
[8]
  enrich.exp.med: 0.8762
[9]
  enrich.exp.med: 0.5931
[10]
  enrich.exp.med: 0.6036
[11]; Comp, protein EIF3I Q13347
  enrich.exp.med: 1.022
[11]; [17]
  enrich.exp.med.lin: 2.03
  enrich.exp.med.log2: 1.022
[12]; Comp, protein PNN Q9H307
  enrich.exp.med: 1.018
[12]; [18]
  enrich.exp.med.lin: 2.025
  enrich.exp.med.log2: 1.018
